In US20240115647A1, “COMPOSITION COMPRISING FLAVANOL MONOMERS AND E-VINIFERIN” (ACTIV'INSIDE, priority 2020, published 2024):

Tested on: tyrosinase
Assay: tyrosinase activity, colorimetric reaction with L-DOPA substrate (absorbance 475 nm)
Type: biochemical
Description: The aim of this test is to model the activity of an enzyme, tyrosinase (the enzyme responsible for melanin formation) using an experimental design and to determine the influence of flavanol monomers and ε-viniferin on enzymatic activity with respect to a specific substrate (L-DOPA). Tyrosinase activity was measured in vitro using a colorimetric reaction. Under the action of tyrosinase, L-DOPA is oxidized and converted into dopaquinone. The formation of dopaquinone can thus be monitored by spectrometry at 475 nm.
In a 96-well plate, the following amounts were deposited in each well: 80 μl phosphate buffer (50 mM), 40 μl of sample to be tested or buffer, 40 μl of tyrosinase at 125 U/ml. At the last moment, 40 μl of L-DOPA (2.5 mM) was added to initiate the reaction and then absorbance at 475 nm was monitored for 25 min.
For each well, the absorbance values over time (Ax) are normalized relative to the first absorbance measurement (AT0) according to the following formula: Normalized absorbance (An)=Ax−AT0. The normalized absorbances are then corrected (for each time) according to the following formula: Corrected normalized absorbance (Anc)=An−ACLT, where ACLT is the value of the normalized absorbance of the reagents in the presence of the sample (buffer+tyrosinase+sample). […]
To this end, tyrosinase activity was monitored and measured in vitro using the colorimetric reaction described above. […]

Oc1ccc(/C=C/c2cc(O)cc3c2[C@@H](c2cc(O)cc(O)c2)[C@H](c2ccc(O)cc2)O3)cc1 [ε-viniferin]
effect on tyrosinase activity with respect to the L-DOPA substrate (experimental design: flavanol monomers 1-50 μM, ε-viniferin 0.0050-0.05 μM, response at 7 min): no significant effect | Estimated Coefficient (coded factors) of the model of corrected normalized absorbance (linear-quadratic model, central composite design, negative = reduces tyrosinase activity): −0.0045
